The values below come from patent US6346532B1, “Amide derivatives or salts thereof” (Yamanouchi Pharmaceutical Co., Ltd., priority 1997, dated 2002).

Where a name gives a salt, the structure may show the parent alone.

On to `Cl.Cl.O=C(Cc1cn(Cc2cccc(Cl)c2)cn1)Nc1ccc(CCNC[C@H](O)c2ccccc2)cc1`, for which the melting point (commonly the temperature of the solid-liquid transition) is 140 to 143 °C.
With `O=C(Nc1ccc(CCNCC(O)c2ccccc2)cc1)c1ccccn1` (stereo not drawn) (as salt: hydrochloride), the melting point was in the range of 223 to 225 °C.
Consider `Cl.Cl.O=C(Cc1nccn1Cc1ccc(I)cc1)Nc1ccc(CCNC[C@H](O)c2ccccc2)cc1`, for which the melting point lay within 222 to 225 °C.
Compound `Cl.O=C(Cn1cccn1)Nc1ccc(CCNC[C@H](O)c2ccccc2)cc1` came in with a melting point of 229 to 232 °C.
The compound `Cc1cccnc1CC(=O)Nc1ccc(CCNC[C@H](O)c2ccccc2)cc1.Cl` returned a melting point of 216 to 217 °C.
As for `Cl.Cl.O=C(Nc1ccc(CCNC[C@H](O)c2ccccc2)cc1)Nc1ccccn1`, the melting point fell in the range of 132 to 133 °C.
Regarding `Cl.Cl.O=C(Cc1ncc[nH]1)Nc1ccc(CCNC[C@H](O)c2ccccc2)cc1`, the melting point is 203 to 207 °C.
`Cl.Cl.O=C(Cc1nccn1Cc1cc(F)c(F)c(F)c1)Nc1ccc(CCNC[C@H](O)c2ccccc2)cc1` yielded a melting point of 209 to 213 °C.
Consider `O=C(Cc1nnnn1Cc1ccc(Cl)c(Cl)c1)Nc1ccc(CCNCC(O)c2ccccc2)cc1` (stereo not drawn) (as salt: hydrochloride), for which the melting point fell in the range of 240 to 242 °C.
As for `Cl.O=C(Cc1ccc2ccccc2n1)Nc1ccc(CCNC[C@H](O)c2ccccc2)cc1`, the melting point lay within 234 to 235 °C.
As for `Cl.Cl.O=C(Cn1cncn1)Nc1ccc(CCNC[C@H](O)c2ccccc2)cc1`, the melting point fell in the range of 237 to 240 °C.
Next, `Cl.Cl.O=C(Cc1nccn1Cc1c(F)c(F)c(F)c(F)c1F)Nc1ccc(CCNC[C@H](O)c2ccccc2)cc1`: 190 to 193 °C.
`Cl.O=C(Cc1nnnn1Cc1ccc(F)cc1)Nc1ccc(CCNC[C@H](O)c2ccccc2)cc1` had a melting point of 225 to 228 °C.
Next, `Cl.O=C(Cc1nccn1Cc1ccc([N+](=O)[O-])cc1)Nc1ccc(CCNC[C@H](O)c2ccccc2)cc1`: 237 to 243 °C.
Next, `Cl.Cl.O=C(Cc1nccn1Cc1ccc(F)cc1)Nc1ccc(CCNC[C@H](O)c2ccccc2)cc1`: 230 to 235 °C.
Consider `O=C(Cc1nccn1Cc1ccc(Cl)cc1)Nc1ccc(CCNC[C@H](O)c2ccccc2)cc1` (as salt: hydrochloride) [Example 23, (R)-2-[1-(4-Chlorobenzyl)-1H-imidazol-2-yl]-4′-[2-[(2-hydroxy-2-phenylethyl)amino]ethyl]acetanilide dihydrochloride], for which the melting point lay in the range of 203 to 209 °C.
The figure for `Cl.O=C(CC1=NNN(Cc2ccc(F)cc2)N1)Nc1ccc(CCNC[C@H](O)c2ccccc2)cc1` is 233 to 235 °C.
`Cl.Cl.O=C(Cc1nccn1Cc1ccc(C(F)(F)F)cc1)Nc1ccc(CCNC[C@H](O)c2ccccc2)cc1` yielded a melting point of 197 to 203 °C.
For `CCOC(=O)Nc1nc(CC(=O)Nc2ccc(CCNC[C@H](O)c3ccccc3)cc2)ns1.Cl`, the melting point was in the range of 205 to 208 °C.
`Cl.O=C(CC1=NNN(Cc2ccc(Cl)c(Cl)c2)N1)Nc1ccc(CCNC[C@H](O)c2ccccc2)cc1` had a melting point of 232 to 235 °C.
For the compound `Cc1cnc(CC(=O)Nc2ccc(CCNC[C@H](O)c3ccccc3)cc2)n1Cc1ccc(F)cc1.Cl.Cl`, the melting point fell in the range of 219 to 223 °C.
On to `Cc1cn(Cc2ccc(F)cc2)c(CC(=O)Nc2ccc(CCNC[C@H](O)c3ccccc3)cc2)n1.Cl.Cl`, for which the melting point lay in the range of 204 to 207 °C.
Next, `Cl.Cl.Nc1nc(CC(=O)Nc2ccc(CCNC[C@H](O)c3ccccc3)cc2)ns1`: 244 to 246 °C.
The figure for `CS(=O)(=O)Nc1nc(CC(=O)Nc2ccc(CCNC[C@H](O)c3ccccc3)cc2)cs1.Cl` is 252 to 256 °C.
As for `CC(=O)Nc1nc(CC(=O)Nc2ccc(CCNC[C@H](O)c3ccccc3)cc2)cs1.Cl`, the melting point lay in the range of 242 to 245 °C.
Consider `Cl.O=C(Cc1cccc(Cl)n1)Nc1ccc(CCNC[C@H](O)c2ccccc2)cc1`, for which the melting point lay in the range of 248 to 251 °C.
With `Cl.O=C(Cc1ccncc1)Nc1ccc(CCNC[C@H](O)c2ccccc2)cc1`, the melting point was 195 to 198 °C.
The figure for `Cl.Cl.O=C(Cc1nccn1-c1ccc2ccccc2c1)Nc1ccc(CCNC[C@H](O)c2ccccc2)cc1` is 208 to 214 °C.
As to `O=C(Cc1cnccn1)Nc1ccc(CCNCC(O)c2ccccc2)cc1` (stereo not drawn) (as salt: hydrochloride), the melting point lay in the range of 236 to 238 °C.
Next, `Cl.Cl.N=C(N)Nc1nc(CC(=O)Nc2ccc(CCNC[C@H](O)c3ccccc3)cc2)cs1`: > 230 °C (dec.); `O=C(Cc1ccccn1)Nc1ccc(CCNCC(O)c2ccccc2)cc1` (stereo not drawn) (as salt: hydrochloride): 223 to 224 °C; `Cl.Cl.O=C(Cc1cn(Cc2ccccc2Cl)cn1)Nc1ccc(CCNC[C@H](O)c2ccccc2)cc1`: 140 to 143 °C.
In turn, `Nc1cccc(CC(=O)Nc2ccc(CCNCC(O)c3ccccc3)cc2)n1` (stereo not drawn) (as salt: hydrochloride) came in with a melting point of 150 to 152 °C.
Next, `Cl.Cl.O=C(Cc1csc2nccn12)Nc1ccc(CCNC[C@H](O)c2ccccc2)cc1`: 161 to 162 °C.
In turn, `Cl.Cl.O=C(Cc1nccn1Cc1c(F)ccc(F)c1F)Nc1ccc(CCNC[C@H](O)c2ccccc2)cc1` yielded a melting point of 213 to 217 °C.
Turning to `Cl.Cl.Cl.O=C(Cc1nccn1-c1ccc2ccccc2n1)Nc1ccc(CCNC[C@H](O)c2ccccc2)cc1`, the melting point fell in the range of 162 to 165 °C.
For the compound `O=C(Cc1ncccn1)Nc1ccc(CCNC[C@H](O)c2ccccc2)cc1` (as salt: hydrochloride) [Example 104, (R)-4′-[2-[(2-hydroxy-2-phenylethyl)amino]ethyl]-2-(2-pyrimidinyl]acetanilide hydrochloride], the melting point is 208 to 210 °C.
In turn, `Cl.O=C(Cc1ccccn1)Nc1ccc(CCNCC(O)c2cccc(F)c2)cc1` (stereo not drawn) displayed a melting point of 214 to 215 °C.
Next, `Cl.Cl.O=C(Cc1nc[nH]n1)Nc1ccc(CCNC[C@H](O)c2ccccc2)cc1`: 221 to 224 °C; `Cl.Cl.Nc1nc(C(=O)C(=O)Nc2ccc(CCNC[C@H](O)c3ccccc3)cc2)cs1`: 205 to 210 °C (dec.); `Cl.O=C(Cc1cccc(OCc2ccccc2)n1)Nc1ccc(CCNC[C@H](O)c2ccccc2)cc1` [60]: 214 to 216 °C.
Regarding `Cl.Cl.O=C(Nc1ccc(CCNC[C@H](O)c2ccccc2)cc1)c1cccnc1`, the melting point was in the range of 263 to 265 °C.
The compound `Cl.Cl.O=C(Cc1n[nH]c(SCc2ccccc2)n1)Nc1ccc(CCNC[C@H](O)c2ccccc2)cc1` showed a melting point of 222 to 224 °C.
For the compound `Cl.O=C(Cc1ccccn1)Nc1ccc(OCCNC[C@H](O)c2ccccc2)cc1`, the melting point was in the range of 225 to 226 °C.
`Cl.O=C(Cc1cccnc1)Nc1ccc(CCNC[C@H](O)c2ccccc2)cc1` came in with a melting point of 236 to 238 °C.
`Cl.O=C(Cc1cccc(OCc2ccccc2)n1)Nc1ccc(CCNC[C@H](O)c2ccccc2)cc1` [16] registered a melting point of 237 to 238 °C.
Next, `Cl.Cl.O=C(Cc1cn(Cc2ccccc2)cn1)Nc1ccc(CCNC[C@H](O)c2ccccc2)cc1`: 139 to 141 °C; `Cl.Cl.O=C(Cc1nccn1Cc1cccc(I)c1)Nc1ccc(CCNC[C@H](O)c2ccccc2)cc1`: 233 to 234 °C; `Cl.Cl.O=C(Cc1nc2ccccc2s1)Nc1ccc(CCNC[C@H](O)c2ccccc2)cc1`: 228 to 233 °C (dec.).
`O=C(Cc1nc2ccccc2[nH]1)Nc1ccc(CCNC[C@H](O)c2ccccc2)cc1` [Example 91, (R)-2-(1H-benzimidazol-2-yl)-4′-[2-[(2-hydroxy-2-phenylethyl)amino]-ethyl]acetanilide] yielded a melting point of 158 to 165 °C.
With `Cl.O=C(Cc1ccccn1)Nc1ccc(CCNCC(O)c2ccc(F)cc2)cc1` (stereo not drawn), the melting point was 223 to 225 °C.
The figure for `Cl.O=C(Cc1ccccn1)Nc1ccc(CCNCC(O)c2ccccc2F)cc1` (stereo not drawn) is 194 to 196 °C; for `Cl.O=C(Cc1n[nH]c(S)n1)Nc1ccc(CCNC[C@H](O)c2ccccc2)cc1` it is 210 to 213 °C.
Next, `Cl.Cl.O=C(Cc1nccn1Cc1ccc(Br)cc1)Nc1ccc(CCNC[C@H](O)c2ccccc2)cc1`: 221 to 223 °C; `Cl.O=C(CCc1ccccn1)Nc1ccc(CCNC[C@H](O)c2ccccc2)cc1`: 202 to 204 °C.
In the case of `Cl.O=C(Cc1nnn[nH]1)Nc1ccc(CCNC[C@H](O)c2ccccc2)cc1`, the melting point was 259 to 261 °C.
As for `Cl.O=C(Cc1ccccn1)Nc1ccc(CCNC[C@H](O)c2cccc(Cl)c2)cc1`, the melting point lay within 221 to 222 °C.
